“And” between values parts separate entries of the source, which are not always exact repeats. Identical values can stand only once. “Also recorded” adds a separate entry of the source.
Assays:
[1] = Example 2: body weights, clinical examinations and adverse events (VCOG-CTCAE); assay type: in vivo, dogs; set-up: key to Local swelling at treatment site: VCOG-CTCAE Grade classification / Pain associated with treatment site: VCOG-CTCAE Grade classification / Transient tachypnoea: VCOG-CTCAE Grade classification / Transient lethargy: VCOG-CTCAE Grade classification / Transient tachycardia: VCOG-CTCAE Grade classification / Transient elevated blood pressure reading: VCOG-CTCAE Grade classification / Transient salivation: VCOG-CTCAE Grade classification / Emesis: VCOG-CTCAE Grade classification / Wound sinus: VCOG-CTCAE Grade classification: ‘mild’ VCOG-CTCAE classification Grade 1 with no intervention required
Procedure: Body weights were collected on each enrolled dog at screening, immediately pre-treatment, at approximately 24 hours, 48 hours post-treatment, and at 7(+1) days, 14(+1) days and 21(+2) days post treatment. The percent bodyweight change is calculated as the difference between immediate pre-treatment and Day 21 (+2) post-treatment values. A positive value indicates weight gain, a negative value indicates weight loss.
Clinical parameters such as rectal temperature (° C.), heart rate (HR) per minute, respiratory rate (RR) per minute, capillary refill time (CRT) (sec), systolic and diastolic blood pressure (mmHg), and mucosal colour were collected on each enrolled dog at screening, immediately pre-treatment, at approximately 24 hours, 48 hours post-treatment, and at 7(±1), 14(±1) and 21(±2) days post treatment. With each parameter evaluated for trends over time, and in context with all other contemporaneously collected parameters, the clinical parameter data is deemed unremarkable for all trial dogs.
Dogs were evaluated for adverse events (AEs) on Days 0 (pre-treatment), 1, 2, 7(±1), 14(±1) and 21(±2) as well as interim timepoints if needed. An AE was defined as any unfavorable and unintended sign, symptom, or disease temporally associated with the use of Compound 1, whether or not related to the product (VCOG-CTCAE 2011).

[2] = Example 7: injection site abnormalities after IVP dosing (VCOG CTCAE); assay type: in vivo, dogs; set-up: key to VCOG CTCAE Magnitude of injection site abnormality: Grade 1: Mild; asymptomatic or mild symptoms; clinical signs or diagnostic observations only; intervention not indicated; key to VCOG CTCAE Relationship to IVP of injection site abnormality: Unrelated: Clearly not related to IVP; Unlikely: Doubtfully related to IVP; Possible: May be related to IVP; Probably: Likely related to IVP; Definite: Clearly related to IVP
Excerpt: Injection site abnormalities were reported within the immediate post-injection period for six cases. […] An analgesic was prescribed to start on day 0 for one of the six cases (SI-11). […] The VCOG CTCAE classifications of these injection site abnormalities for magnitude and relationship to IVP as determined by the investigator are listed in Table 35.

[3] = tested on: cutaneous MCT or subcutaneous MCT; experiment: Example 4: long term follow up of Example 1 dogs for tumor recurrence; assay type: in vivo; on Tumor recurrence at case follow-up, approx. month 2 after last treatment: key: NTR = no tumor recurrence; TR = tumor recurrence; on Tumor recurrence at case follow-up, approx. month 3 after last treatment: key: NTR = no tumor recurrence; TR = tumor recurrence; on Tumor recurrence at case follow-up, approx. month 4 after last treatment: key: NTR = no tumor recurrence; TR = tumor recurrence; on Tumor recurrence at case follow-up, approx. month 5 after last treatment: key: NTR = no tumor recurrence; TR = tumor recurrence
Procedure: The dogs of in Example 1, treated with 1.0 mg Compound 1 per mL in 40% propylene glycol solution (0.4 mL/cm^3 tumor), were followed up post-treatment.
The attending veterinarian advised dog C03-T-04 enter a new treatment program for residual tissue mass treatment due to a putative immune deficiency, and dog C03-T-07 died on Day 4 post treatment.

[4] = cohort 3, 0.2 mg/mL, out of 7 dogs
[5] = immediate post-injection period

Structure (SMILES): C/C=C(\C)C(=O)O[C@@H]1[C@@H](C)[C@@]2(O)[C@H]([C@@H]3C(C)(C)[C@]13OC(=O)[C@@H](C)CC)[C@@H]1O[C@]1(CO)[C@@H](O)[C@]1(O)C(=O)C(C)=C[C@H]12 [Compound 1, 12-tigloyl-13-(2-methylbutanoyl)-6,7-epoxy-4,5,9,12,13,20-hexahydroxy-1-tigliaen-3-one]
- Pain associated with treatment site: Incidence (%) ([1]; Grade 1, all patients (n = 27)): 14.8%
- Pain associated with treatment site: No. of events ([1]; Grade 1, all patients (n = 27)): 4
- Pain associated with treatment site (oral analgesic): Incidence (%) ([1]; Grade 2, all patients (n = 27)): 22.2%
- Pain associated with treatment site (oral analgesic): No. of events ([1]; Grade 2, all patients (n = 27)): 6
- Bilateral otitis externa (oral antibiotic): Incidence (%) ([1]; all patients (n = 27)): 3.7%
- Bilateral otitis externa (oral antibiotic): No. of events ([1]; all patients (n = 27)): 1
- Bilateral otitis externa (oral antibiotic): VCOG-CTCAE Grade classification ([1]; all patients (n = 27)): 2
- Corneal ulcer (antibiotic ointment and oral analgesic): Incidence (%) ([1]; all patients (n = 27)): 3.7%
- Corneal ulcer (antibiotic ointment and oral analgesic): No. of events ([1]; all patients (n = 27)): 1
- Corneal ulcer (antibiotic ointment and oral analgesic): VCOG-CTCAE Grade classification ([1]; all patients (n = 27)): 2
- Emesis: Incidence (%) ([1]; all patients (n = 27)): 7.4%
- Emesis: No. of events ([1]; all patients (n = 27)): 2
- Emesis: VCOG-CTCAE Grade classification ([1]; all patients (n = 27)): 1
- Flatulence (oral antibiotic): Incidence (%) ([1]; all patients (n = 27)): 3.7%
- Flatulence (oral antibiotic): No. of events ([1]; all patients (n = 27)): 1
- Flatulence (oral antibiotic): VCOG-CTCAE Grade classification ([1]; all patients (n = 27)): 2
- Local swelling at treatment site: Incidence (%) ([1]; all patients (n = 27)): 81.5%
- Local swelling at treatment site: No. of events ([1]; all patients (n = 27)): 22
- Local swelling at treatment site: VCOG-CTCAE Grade classification ([1]; all patients (n = 27)): 1
- Number of AEs of ‘mild’ VCOG-CTCAE Grade 1 (no intervention required) ([1]; all patients (n = 27)): 52
- Number of AEs requiring minimal medical intervention or additional analgesic therapy ([1]; all patients (n = 27)): 12
- Pain associated with treatment site (oral analgesic): VCOG-CTCAE Grade classification ([1]; all patients (n = 27)): 2
- Seborrhoea (oral antibiotic): Incidence (%) ([1]; all patients (n = 27)): 3.7%
- Seborrhoea (oral antibiotic): No. of events ([1]; all patients (n = 27)): 1
- Seborrhoea (oral antibiotic): VCOG-CTCAE Grade classification ([1]; all patients (n = 27)): 2
- Transient elevated blood pressure reading: Incidence (%) ([1]; all patients (n = 27)): 3.7%
- Transient elevated blood pressure reading: No. of events ([1]; all patients (n = 27)): 1
- Transient elevated blood pressure reading: VCOG-CTCAE Grade classification ([1]; all patients (n = 27)): 1
- Transient lethargy: Incidence (%) ([1]; all patients (n = 27)): 18.5%
- Transient lethargy: No. of events ([1]; all patients (n = 27)): 5
- Transient lethargy: VCOG-CTCAE Grade classification ([1]; all patients (n = 27)): 1
- Transient salivation: Incidence (%) ([1]; all patients (n = 27)): 3.7%
- Transient salivation: No. of events ([1]; all patients (n = 27)): 1
- Transient salivation: VCOG-CTCAE Grade classification ([1]; all patients (n = 27)): 1
- Transient tachycardia: Incidence (%) ([1]; all patients (n = 27)): 7.4%
- Transient tachycardia: No. of events ([1]; all patients (n = 27)): 2
- Transient tachycardia: VCOG-CTCAE Grade classification ([1]; all patients (n = 27)): 1
- Transient tachypnoea: Incidence (%) ([1]; all patients (n = 27)): 51.9%
- Transient tachypnoea: No. of events ([1]; all patients (n = 27)): 14
- Transient tachypnoea: VCOG-CTCAE Grade classification ([1]; all patients (n = 27)): 1
- Wound infection (oral antibiotic): Incidence (%) ([1]; all patients (n = 27)): 7.4%
- Wound infection (oral antibiotic): No. of events ([1]; all patients (n = 27)): 2
- Wound infection (oral antibiotic): VCOG-CTCAE Grade classification ([1]; all patients (n = 27)): 2
- Wound sinus: Incidence (%) ([1]; all patients (n = 27)): 3.7%
- Wound sinus: No. of events ([1]; all patients (n = 27)): 1
- Wound sinus: VCOG-CTCAE Grade classification ([1]; all patients (n = 27)): 1
- Total number of AEs identified ([1]; all patients (n = 27), 15 event types): 64
- Clinical parameter data (temperature, HR, RR, CRT, blood pressure, mucosal colour) ([1]; all trial dogs, screening to Day 21): unremarkable
- Number of dogs that lost weight ([1]; cohort 1, 1.0 mg/mL): 3
- Number of dogs that gained weight during the trial ([1]; cohort 1, 1.0 mg/mL, out of 10 dogs, pre-treatment to Day 21): 6
- Largest recorded weight loss ([1]; cohort 1, dog NVC-103): 3.9%
- Number of dogs that lost body weight ([1]; cohort 2, 0.5 mg/mL, out of 10 dogs): 9
- Largest recorded weight loss ([1]; cohort 2, dog GCV-204): 5.6%
- Number of dogs that gained weight [1, 4]: 3
- Number of dogs that lost weight [1, 4]: 4
- Largest recorded weight loss ([1]; cohort 3, dog NVC-304): 9.2%
- Body weight gain ([1]; dog NVC-102, cohort 1): 15%
- Pain associated with treatment site: VCOG-CTCAE Grade classification ([1]; no intervention, all patients (n = 27)): 1
- Number of cases with injection site abnormalities in the immediate post-injection period ([2]; 11 cases): six
- Number of cases that exhibited restlessness [2, 5]: three
- Number of cases that experienced pain [2, 5]: Three
- Day by which injection site abnormalities resolved ([2]; pain and restlessness): ≤ 1 days
- VCOG CTCAE Relationship to IVP of injection site abnormality ([2]; per case, as determined by the investigator): Definite; also recorded: Possible; also recorded: Probable
- VCOG CTCAE Magnitude of injection site abnormality ([2]; per case, immediate post-injection period): Grade 1^f
- Time post treatment at which tumor recurrence was identified ([3]; 196: dog C03-N-01 (approx. 6 months), 359: dog C03-T-02 (approx. 12 months)): 196 days and 359 days
- Time the dog remained tumor free post treatment ([3]; dog C03-T-06, approx. 8 months, until euthanased for diabetes and kidney failure): 265 days
- Number of dogs with residual tumor mass on Days 28-29 post treatment (retreated) ([3]; dogs C03-N-03, C03-T-01, C03-T-03): 3
- Tumor recurrence post-repeat treatment ([3]; dogs C03-N-03, C03-T-01, C03-T-03, examined out to 389, 339 and 346 days): None of these dogs exhibited tumor recurrence
- Number of dogs treated successfully with a single treatment and no tumor recurrence within the duration of assessment ([3]; of ten dogs available for follow up): 5
- Tumor recurrence at case follow-up, approx. month 1 after last treatment ([3]; one value per dog): NTR (3×) and TR (TR = tumor recurrence)
- Tumor recurrence at case follow-up, approx. month 2 after last treatment ([3]; one value per dog): NTR
- Tumor recurrence at case follow-up, approx. month 3 after last treatment ([3]; one value per dog): NTR
- Tumor recurrence at case follow-up, approx. month 4 after last treatment ([3]; one value per dog): NTR
- Tumor recurrence at case follow-up, approx. month 5 after last treatment ([3]; one value per dog): NTR
- Tumor recurrence at case follow-up, approx. month 6 after last treatment ([3]; one value per dog): NTR
- Tumor recurrence at case follow-up, approx. month 7 after last treatment ([3]; one value per dog): NTR
- Tumor recurrence at case follow-up, approx. month 9 after last treatment ([3]; one value per dog): NTR
- Tumor recurrence at case follow-up, approx. month 11 after last treatment ([3]; one value per dog): NTR
- Tumor recurrence at case follow-up, approx. month 12 after last treatment ([3]; one value per dog): TR (TR = tumor recurrence) and NTR (4×)
- Repeat treatment required ([3]; one value per dog, Example 1 dogs): Day 28 (2×) and Nil (7×) and Day 29

Reference: patent US20190160035A1, “METHOD OF TREATMENT” (QBIOTICS LIMITED, priority 2016, published 2019)
